Experimental findings from patent US20200368267A1, “PROPHYLACTIC AND/OR THERAPEUTIC AGENT FOR AMYOTROPHIC LATERAL SCLEROSIS” (KYOTO UNIVERSITY, priority 2017, published 2020) are described below.

Where a name gives a salt, the structure may show the parent alone.

In one experiment the test system is mutant SOD1 Tg mice. Nature of the experiment: ALS model mouse (Tg-G93A SOD1 mouse). In kind it is in vivo. The note with it: 5 mg/kg intraperitoneal from 8th week for 5 weeks; mean±SD, n=26 per group; Kaplan-Meier.
As for `COc1cc(Nc2c(C#N)cnc3cc(OCCCN4CCN(C)CC4)c(OC)cc23)c(Cl)cc1Cl` [bosutinib (SKI-606), bosutinib], the disease onset is 123.2 ± 9.1 days and the survival time came to 164.1 ± 9.4 days.

The subject of another experiment is MNs with mutant SOD1 gene (L144FVX). Nature of the experiment: Large scale screen using ALS MN (MN survival readout). The note with it: 50 μM, positive control assays. In kind it is cell-based, human. Here is the method:
(§1) iPS cell cells containing LNI cassette were dissociated into single cells using Accutase, and seeded together with 1 μg/ml of doxycycline (TAKARA, Kusatsu, Japan) in N3 medium containing 1 μM retinoic acid, 1 μM SAG, 10 ng/ml BDNF, 10 ng/ml GDNF, and 10 ng/ml NT-3 on a 96 well plate (BD Bioscience) coated with Matrigel. The cells were fixed and stained on days 7 and 14. The number of viable MNs stained with βIII-tubulin was quantified by IN Cell Analyzer 6000 and expressed as the number of day 14/day 7. […] In this assay, therefore, βIII-tubulin positive neurons were defined as MN. Neurite and cell body were detected by optimized fluorescence levels, and the number of cell bodies having neurite was counted as the number of surviving neurons using IN Cell Developer toolbox software 1.9.
iPS cell cells containing LNI cassette were dissociated into single cells using Accutase, and seeded together with 1 ng/ml of doxycycline in N3 medium containing 1 μM RA, 1 μM SAG, 10 ng/ml BDNF, 10 ng/ml GDNF and 10 ng/ml NT-3 on a 96 well plate (BD Bioscience) coated with Matrigel. The libraries used for drug screening were Microsource US Drugs (Microsource Discovery Systems), Microsource International Drugs (Microsource Discovery Systems), and kinase inhibitor purchased from EMD and Selleck Chemicals. Using Integrity and Nextbio data base, existing drugs and test drugs in clinical trials were selected from these libraries and used for throughput screening. […] DMSO was used as a negative control, and kenpaullone, which is a candidate drug for ALS treatment, was used as a positive control. The number of viable MNs stained with βIII-tubulin was quantified by IN Cell Analyzer 6000.
`O=C1Cc2c([nH]c3ccc(Br)cc23)-c2ccccc2N1` [kenpaullone]: the “positive control effect on ALS MN survival” value is listed as “positive effect was confirmed”.

Still in this experiment, the particulars now being: compounds at final concentration 10 μM added on day 7, cells fixed and stained on day 14; viable MNs stained with βIII-tubulin.
The compound `CCOc1ccn(-c2ccc(F)cc2)c(=O)c1C(=O)Nc1ccc(Oc2ccnc(N)c2Cl)c(F)c1` [BMS 777607] registered an MN index of 8.551.
Regarding `Cc1nc(N)sc1-c1ccnc(Nc2ccc(N3CCOCC3)cc2)n1` [CYC116], the MN index amounted to 8.142.
With `O=C(c1ccc(/C=C/c2n[nH]c3ccccc23)cc1)N1CCNCC1` [KW 2449], the MN index is listed as 7.722.
Take `COCCNCc1ccc(-c2cc3nccc(Oc4ccc(NC(=S)NC(=O)Cc5ccc(F)cc5)cc4F)c3s2)nc1` [MGCD-265]: the MN index stood at 7.623.
Still for that read-out and setting: the value for `C[C@@H](Oc1cc(-c2cnn(C3CCNCC3)c2)cnc1N)c1c(Cl)ccc(F)c1Cl` [PF-2341066] was 7.595; that for `Cc1cc(Nc2cc(N3CCN(C)CC3)nc(Sc3ccc(NC(=O)C4CC4)cc3)n2)n[nH]1` [VX-680] was 9.578; that for `Cc1c(C)c2c(c(C)c1O)CCC(C)(CCCC(C)CCCC(C)CCCC(C)C)O2` (stereo not drawn) [alpha-tochopherol] was 9.456.
On the same count and under the same terms, the value for `CCN(CC)Cc1cc(Nc2ccnc3cc(Cl)ccc23)ccc1O` [amodiaquine dihydrochloride] was 8.98; that for `CN1CCc2cccc3c2[C@H]1Cc1ccc(O)c(O)c1-3` [apomorphine hydrochloride] was 7.257; that for `CNC(=O)c1ccccc1Sc1ccc2c(/C=C/c3ccccn3)n[nH]c2c1` [axitinib] was 7.353.
For the compound `CN(C)CCCn1cc(C2=C(c3c[nH]c4ccccc34)C(=O)NC2=O)c2ccccc21` [bisindolylmaleimide I], the MN index is recorded as 7.963.
`COc1cc(Nc2c(C#N)cnc3cc(OCCCN4CCN(C)CC4)c(OC)cc23)c(Cl)cc1Cl` [bosutinib (SKI-606), bosutinib]: the MN index is on record as 7.196.
Still for that read-out and setting: the value for `CCCC1O[C@@H]2C[C@H]3[C@@H]4CCC5=CC(=O)C=C[C@]5(C)[C@H]4[C@@H](O)C[C@]3(C)[C@]2(C(=O)CO)O1` (some centres unmarked) [budesonide] was 10.27; that for `CCCCOC(=O)c1ccc(N)cc1` [butamben] was 7.391.
On the same count and under the same terms, the value for `Cc1nc(Nc2ncc(C(=O)Nc3c(C)cccc3Cl)s2)cc(N2CCN(CCO)CC2)n1` [dasatinib] was 6.659; that for `Cn1cc(C2=C(c3cn(C4CCN(Cc5ccccn5)CC4)c4ccccc34)C(=O)NC2=O)c2ccccc21` [enzastaurin] was 9.841; that for `O=C(O)CCC(=O)c1ccc(-c2ccccc2)cc1` [fenbufen] was 7.224.
Regarding `CC1(C)O[C@@H]2C[C@H]3[C@@H]4C[C@H](F)C5=CC(=O)C=C[C@]5(C)[C@H]4[C@@H](O)C[C@]3(C)[C@]2(C(=O)CO)O1` [flunisolide], the MN index is 7.857.
`COc1ccc2c(c1OC)C(=O)O[C@@H]2[C@H]1c2cc3c(cc2CCN1C)OCO3` [hydrastine (1R, 9S)]: the MN index was 7.525.
Still for that read-out and setting: the value for `Oc1ccc(O)cc1` [hydroquinone] was 7.957; that for `CCN(CCCCOC(=O)c1ccc(OC)c(OC)c1)C(C)Cc1ccc(OC)cc1` (centres unmarked) [mebeverine hydrochloride] was 6.856; that for `Cc1ccc(Nc2nccc(N(C)c3ccc4c(C)n(C)nc4c3)n2)cc1S(N)(=O)=O` [pazopanib hydrochloride] was 9.533.
The same measure, in the same setting: the value for `O=C(/C=C/C=C/c1ccc2c(c1)OCO2)N1CCCCC1` [piperine] was 7.391.
On the same count and under the same terms, the value for `Cc1cc2nc3c(=O)[nH]c(=O)nc-3n(C[C@H](O)[C@H](O)[C@H](O)CO)c2cc1C` [riboflavin] was 9.554.
The compound `CCN(CC)CCNC(=O)c1c(C)[nH]c(/C=C2\C(=O)Nc3ccc(F)cc32)c1C` [sunitinib malate] came in with an MN index of 8.133.
For the compound `COc1cc2nccc(Oc3ccc(NC(=O)Nc4cc(C)on4)c(Cl)c3)c2cc1OC` [tivozanib], the MN index worked out at 17.26.

Another experiment concerns mutant SOD1 ALS MNs (ALS1). Nature of the experiment: MN survival assay and high content analysis. The experiment is classed as cell-based, human. To be noted: added to MNs with bosutinib treatment. Here is the method: as §1
Short interfering RNA (siRNA) was purchased from Life Technologies (siRNA ID of Src siRNA 1: s13414; siRNA ID of Src siRNA 2: s13413; siRNA ID of c-Abl siRNA 1: s866; siRNA ID of c-Abl siRNA 2: s864; siRNA ID of mTOR siRNA: s604). Scramble siRNA purchased from Life Technologies was used as a negative control of siRNA. iPS cells were dissociated and plated with dox in a 96 well plate. On day 7, siRNA was transfected with Lipofectamine RNAiMAX (Thermo Fisher Scientific). Viable MN was evaluated 4 days after transfection by immunostaining with βIII-tubulin, followed by analysis with IN Cell Analyzer 6000 and IN Cell Developer toolbox software 1.9.
For `CCN(CC)CCCC(C)Nc1ccnc2cc(Cl)ccc12` (centres unmarked) [chloroquine], the “effect of autophagy inhibitor on the protective effect of bosutinib in MN survival assay” value is recorded as “decreased the protective effect of bosutinib”.

The experiment is the same for the next values; noted with them: mutant SOD1 ALS MNs (ALS1); compound added day 7, counted day 14.
`Cc1ccc(NC(=O)c2ccc(CN3CCN(C)CC3)cc2)cc1Nc1nccc(-c2cccnc2)n1` [imatinib]: the MN survival result is listed as “increased MN survival”.
As for `Cc1cn(-c2cc(NC(=O)c3ccc(C)c(Nc4nccc(-c5cccnc5)n4)c3)cc(C(F)(F)F)c2)cn1` [nilotinib], the MN survival result is on record as “increased MN survival”.
